Laboratory results published in paper PMC8037814, “Polymorphic Characterization, Pharmacokinetics, and Anti-Inflammatory Activity of Ginsenoside Compound K Polymorphs” (Molecules, 2021).
Where “and” joins values, the source holds several entries; their conditions need not be identical. Equal entries are not always repeated. Where two headings read alike, the source gives them in different places.

Columns and labels:
[1] = Pharmacokinetics after intravenous administration of CK in rats (10 mg/kg); type: in vivo, Sprague-Dawley rats; conditions: male rats, i.v. 10 mg/kg; for MRT last: read-out: MRT(0-t); for half-life: read-out: t1/2z (converted)
Method: All samples were analyzed with a triple quadrupole LC-MS/MS (API 4000 LC-MS/MS, AB Sciex, Framingham, MA, USA) coupled with an Agilent 1200 HPLC system (Agilent Technologies, Palo Alto, CA, USA). The MS was equipped with an electrospray system (ESI). The N2 gas temperature and ion-spray voltage were set to 550 °C and 4.5 kV, respectively. CK was measured in multiple reaction monitoring (MRM) mode using a negative electrospray ionization source at m/z 667.4 → 621.2 for CK (CID 25.6 v) and m/z 271.2 → 228.8 for internal standard (IS, (E)-5-(4-fluorostyryl)-2-isopropylbenzene-1,3-diol, Welichem Biotech Inc., Wayburne Drive Burnaby, BC, Canada) (CID 28.3 v) with a dwell time of 0.1 s.
Rats were divided randomly into 5 groups of six animals each (sex in half) and given 7 days to acclimatize to the facility before the experiments began. The four forms of CK were suspended in 0.5% sodium carboxymethyl cellulose (CMC-Na) solution and orally administered to rats at a dose of 20 mg/kg. A CK solution in a mixed solvent of dimethyl sulfoxide (DMSO)/castor oil/physiologic saline (3:5:92, v/v) was intravenously administered to the remaining group via the tail vein at a dose of 10 mg/kg. Blood samples were collected by retro-orbital puncture at the following times: 0.167, 0.333, 0.667, 1, 2, 3, 4, 6, 9, 12, and 24 h for the oral administration, and at 0.0083, 0.05, 0.133, 0.25, 0.5, 1, 2, 4, 6, and 9 h for the intravenous administration. Plasma samples were obtained by centrifuging a heparinized blood tube at 4000 rpm for 5 min and then stored at −70 °C until analysis.
The procedure for drug extraction from plasma samples was as follows: 0.2 mL acetonitrile, 0.2 mL plasma sample, and 10 μL IS (1 µg/mL) were added into a 1.5 mL Eppendorf-type tube. This mixture was vortexed for 1 min and then treated with 0.8 mL of methyl tert-butyl ether (MTBE) to precipitate the plasma proteins. After a mechanical vortex for 1 min and subsequent centrifugation (4000 rpm, 5 min), 0.8 mL of the supernatant was transferred and blow-dried with N2 at 40 °C in a water bath. Finally, the residue was dissolved in 120 μL of mobile phase, and then 10 μL was subjected to HPLC for analysis. […] Intra- and inter-day precision and accuracy never exceeded 15% by analyzing six replicate samples.
The CK pharmacokinetic parameters in rats, including the area under the curve (AUC(0–t) and AUC(0–∞)), mean residence time (MRT(0–t) and MRT(0–∞)), maximum concentration (Cmax), time to maximum concentration (Tmax), half-life (t1/2), apparent distribution volume (V), and total plasma clearance (CL), were derived from plasma concentration-time curves by using non-compartmental analysis (NCA) with DAS 2.0 software (Drug And Statistics, Mathematical Pharmacology Professional Committee of China, Shanghai, China). The absolute bioavailability (Fabs) was calculated from the dose-adjusted ratio of AUCp.o. to AUCi.v.. One-way analysis of variance (ANOVA) by SPSS 11.5 (SPSS Inc., Chicago, IL, USA) was conducted to compare the primary PK parameters.

[2] = cited from earlier work
[3] = male, Sprague-Dawley, rat, plasma, iv, 10 mg/kg, Mean±SD, read-out: Plasma concentrations of CK
[4] = male, Sprague-Dawley, rat, plasma, iv, 10 mg/kg, individual rats 1-3, read-out: Plasma concentrations of CK
[5] = male, Sprague-Dawley, rat, plasma, iv, 10 mg/kg, Mean±SD
[6] = male, Sprague-Dawley, rat, plasma, iv, 10 mg/kg, individual rats 1-3

**Q.** Which “Plasma concentrations of CK” value ([1]; 1 h, individual rats 1-3, 10 mg/kg) does the source give for `CC(C)=CCCC(C)(OC1OC(CO)C(O)C(O)C1O)C1CCC2(C)C1C(O)CC1C3(C)CCC(O)C(C)(C)C3CCC12C` [CK, 20-O-β-D-glucopyranosyl-20(S)-protopanaxadiol] here?
**A.** Its value is 75.42 ng/mL and 107.64 ng/mL.

**Q.** What about the “Plasma concentrations of CK” value ([1]; 2 h, individual rats 1-3, 10 mg/kg) of the same compound?
**A.** The value was 41.16 ng/mL and 54.90 ng/mL.

**Q.** And the “Plasma concentrations of CK” value ([1]; 4 h, individual rats 1-3, 10 mg/kg)?
**A.** Its value is 42.63 ng/mL and 32.27 ng/mL and 85.89 ng/mL.

**Q.** What about the “Plasma concentrations of CK” value ([1]; 6 h, individual rats 1-3, 10 mg/kg) of the same compound?
**A.** Its value is 14.03 ng/mL and 27.30 ng/mL.

**Q.** What about the “Plasma concentrations of CK” value ([1]; 9 h, individual rats 1-3, 10 mg/kg) of the same compound?
**A.** Its value is 11.73 ng/mL and 16.36 ng/mL.

**Q.** And the CLz/F ([1]; Mean±SD)?
**A.** The CLz/F was 90 ± 18 mL/min/kg.

**Q.** What about the Vz/F ([1]; Mean±SD) of the same compound?
**A.** Its Vz/F is 24.21 ± 7.69 L/kg.

**Q.** What about the “AUC(0-t)” value ([1]; individual rats 1-3, 10 mg/kg) of the same compound?
**A.** Its value is 2963.73 ng·h/mL and 3980.16 ng·h/mL.

**Q.** What about the “AUC(0-∞)” value ([1]; individual rats 1-3, 10 mg/kg) of the same compound?
**A.** Its value is 3012.98 ng·h/mL and 4074.46 ng·h/mL.

**Q.** What about the CLz/F ([1]; individual rats 1-3, 10 mg/kg) of the same compound?
**A.** Its CLz/F is 77.7 mL/min/kg and 111 mL/min/kg and 81.8 mL/min/kg.

**Q.** And the “MRT(0-t)” value ([1]; individual rats 1-3, 10 mg/kg)?
**A.** The value was 19.2 min and 27.2 min.

**Q.** And the “MRT(0-∞)” value ([1]; individual rats 1-3, 10 mg/kg)?
**A.** Its value is 22.8 min and 32.4 min and 47.4 min.

**Q.** What about the Vz/F ([1]; individual rats 1-3, 10 mg/kg) of the same compound?
**A.** Its Vz/F is 15.34 L/kg and 28.92 L/kg and 28.37 L/kg.

**Q.** And the t1/2z ([1]; individual rats 1-3, 10 mg/kg)?
**A.** Its t1/2z is 181 min and 241 min.

**Q.** And the concentration at 0.5 min [1, 3]?
**A.** Its concentration at 0.5 min is 71700 ± 5620 ng/mL.

**Q.** What about the concentration at 0.5 min [1, 4] of the same compound?
**A.** Its concentration at 0.5 min is 78100 ng/mL.

**Q.** What about the concentration at 0.05 h [1, 3] of the same compound?
**A.** Its concentration at 0.05 h is 17100 ± 5230 ng/mL.

**Q.** And the concentration at 0.05 h [1, 4]?
**A.** Its concentration at 0.05 h is 21700 ng/mL.

**Q.** What about the concentration at 8 min ([1]; male, Sprague-Dawley, rat, plasma, iv, 10 mg/kg, 8 min, Mean±SD, read-out: Plasma concentrations of CK) of the same compound?
**A.** Its concentration at 8 min is 2280 ± 940 ng/mL.

**Q.** And the concentration at 0.25 h [1, 3]?
**A.** Its concentration at 0.25 h is 1080 ± 359 ng/mL.

**Q.** And the concentration at 0.25 h [1, 4]?
**A.** Its concentration at 0.25 h is 1260 ng/mL.

**Q.** And the concentration at 0.5 h [1, 3]?
**A.** Its concentration at 0.5 h is 333 ± 103 ng/mL.

**Q.** What about the concentration at 0.5 h [1, 4] of the same compound?
**A.** Its concentration at 0.5 h is 393 ng/mL.

**Q.** And the concentration at 1 h ([1]; male, Sprague-Dawley, rat, plasma, iv, 10 mg/kg, 1 h, Mean±SD, read-out: Plasma concentrations of CK)?
**A.** The concentration at 1 h was 95.5 ± 17.5 ng/mL.

**Q.** And the concentration at 1 h ([1]; male, Sprague-Dawley, rat, plasma, iv, 10 mg/kg, 1 h, individual rats 1-3, read-out: Plasma concentrations of CK)?
**A.** Its concentration at 1 h is 103 ng/mL.

**Q.** And the concentration at 2 h ([1]; male, Sprague-Dawley, rat, plasma, iv, 10 mg/kg, 2 h, Mean±SD, read-out: Plasma concentrations of CK)?
**A.** Its concentration at 2 h is 52.1 ± 9.87 ng/mL.

**Q.** And the concentration at 2 h ([1]; male, Sprague-Dawley, rat, plasma, iv, 10 mg/kg, 2 h, individual rats 1-3, read-out: Plasma concentrations of CK)?
**A.** The concentration at 2 h was 60.3 ng/mL.

**Q.** And the concentration at 4 h ([1]; male, Sprague-Dawley, rat, plasma, iv, 10 mg/kg, 4 h, Mean±SD, read-out: Plasma concentrations of CK)?
**A.** The concentration at 4 h was 53.6 ± 28.4 ng/mL.

**Q.** And the concentration at 6 h ([1]; male, Sprague-Dawley, rat, plasma, iv, 10 mg/kg, 6 h, Mean±SD, read-out: Plasma concentrations of CK)?
**A.** Its concentration at 6 h is 20.3 ± 6.66 ng/mL.

**Q.** What about the concentration at 6 h ([1]; male, Sprague-Dawley, rat, plasma, iv, 10 mg/kg, 6 h, individual rats 1-3, read-out: Plasma concentrations of CK) of the same compound?
**A.** Its concentration at 6 h is 19.7 ng/mL.

**Q.** And the concentration at 9 h ([1]; male, Sprague-Dawley, rat, plasma, iv, 10 mg/kg, 9 h, Mean±SD, read-out: Plasma concentrations of CK)?
**A.** Its concentration at 9 h is 12.4 ± 3.64 ng/mL.

**Q.** What about the concentration at 9 h ([1]; male, Sprague-Dawley, rat, plasma, iv, 10 mg/kg, 9 h, individual rats 1-3, read-out: Plasma concentrations of CK) of the same compound?
**A.** The concentration at 9 h was 9.16 ng/mL.

**Q.** What about the AUC(0-inf) [1, 5] of the same compound?
**A.** The AUC(0-inf) was 3790 ± 685 ng·h/mL.

**Q.** What about the AUC(0-t) ([1]; male, Sprague-Dawley, rat, plasma, iv, 10 mg/kg, Mean±SD, read-out: AUC(0-t)) of the same compound?
**A.** Its AUC(0-t) is 3740 ± 684 ng·h/mL.

**Q.** What about the MRT last [1, 5] of the same compound?
**A.** The MRT last was 21.6 ± 4.8 min.

**Q.** And the MRT inf ([1]; male, Sprague-Dawley, rat, plasma, iv, 10 mg/kg, Mean±SD, read-out: MRT(0-∞))?
**A.** Its MRT inf is 34.2 ± 12.6 min.

**Q.** And the half-life [1, 5]?
**A.** The half-life was 186 ± 52.2 min.

**Q.** What about the AUC(0-inf) [1, 6] of the same compound?
**A.** Its AUC(0-inf) is 4290 ng·h/mL.

**Q.** And the AUC(0-t) ([1]; male, Sprague-Dawley, rat, plasma, iv, 10 mg/kg, individual rats 1-3, read-out: AUC(0-t))?
**A.** Its AUC(0-t) is 4260 ng·h/mL.

**Q.** And the MRT last [1, 6]?
**A.** Its MRT last is 18 min.

**Q.** What about the half-life [1, 6] of the same compound?
**A.** Its half-life is 137 min.

**Q.** What about the “exposure levels of CK in females versus males” value ([2]; healthy Chinese subjects) of the same compound?
**A.** Its value is “higher”.

**Q.** What about the “dose-normalized Cmax and t1/2 in females versus males” value ([2]; multiple-dose trial in humans, day 1 and day 15) of the same compound?
**A.** Its value is “significantly higher”.
